In patent publication US7732618B2, “Benzimidazole acetic acids exhibiting CRTH2 receptor antagonism and uses thereof” (Wyeth, priority 2004, dated 2010):

These compounds were tested against T1, human CRTH2 (Homo sapiens, UniProt Q9Y5Y4) (assay: CRTH-2 binding assay (scintillation proximity assay, inhibition of 3H-PGD2 binding)). Details: membranes from 293EBNA-hCRTH2 cells, 3H-PGD2 3.6 nM; Ki calculated from IC50.
T1 sequence (Q9Y5Y4 1-395): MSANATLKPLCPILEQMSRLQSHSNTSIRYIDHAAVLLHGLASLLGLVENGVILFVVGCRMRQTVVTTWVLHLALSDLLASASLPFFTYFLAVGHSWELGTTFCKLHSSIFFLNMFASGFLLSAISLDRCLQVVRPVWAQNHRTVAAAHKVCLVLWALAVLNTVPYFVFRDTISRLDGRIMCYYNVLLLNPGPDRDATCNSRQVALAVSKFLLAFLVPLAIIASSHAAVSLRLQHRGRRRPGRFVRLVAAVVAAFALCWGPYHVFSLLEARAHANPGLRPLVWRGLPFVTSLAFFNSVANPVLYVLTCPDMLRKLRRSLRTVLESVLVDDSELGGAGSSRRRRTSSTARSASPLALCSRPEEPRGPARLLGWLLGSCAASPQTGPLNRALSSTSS
Set-up: expressed in transfected cells; host or cells: 293EBNA-hCRTH2 cells (membrane preparation)
Procedure: A CRTH2 binding assay was developed to measure the ability of compounds to inhibit the binding of PGD2 to human CRTH2 using a scintillation proximity assay.
Membranes containing hCRTH2 receptors were prepared from 293EBNA-hCRTH2 cells (a 293EBNA cell line stably expressing human CRTH2). The cells were grown to confluency, harvested and washed with PBS. The cells were resuspended in 10 mM Hepes pH 7.4, 1 mM EDTA and protease inhibitors and incubated for 30 min on ice. The cells were homogenized and centrifuged for 10 min at 1000×g. The supernate was centrifuged for 30 min at 100,000×g and the membrane pellet was then resuspended in 10 mM Hepes pH 7.4 and 1 mM EDTA. The protein concentration of the membrane preparation was determined by Bradford assay (Bio-Rad).
The ability of compounds to inhibit the interaction of PGD2 to human CRTH2 was determined at seven compound concentrations. Compounds were serially diluted in DMSO then diluted into CRTH2 buffer (10 mM Hepes pH 7.4, 1 mM EDTA, 10 mM MnCl2) to six times the final desired concentration. 20 μL of the diluted compounds were transferred into non-surface binding 96-well plates (Corning). Each concentration was done in triplicate. In addition to test compounds, each plate contained 12 control wells. Six of these wells contained 20 μL of CRTH2 buffer. These wells were used to measure total binding. Six wells contained 20 μL of CRTH2 buffer plus 1.5 mM indomethacin. These wells were used to measure non-specific binding. Next, 293EBNA-hCRTH2 membranes were resuspended in CRTH2 buffer with glycerol (10 mM Hepes pH 7.4, 1 mM EDTA, 10 mM MnCl2, 25% glycerol) so that the final concentration was approximately 20 μg/100 μL. Polylysine-coated yttrium silicate SPA beads (Amersham) were added to the membrane mix to a concentration of 0.4 mg/100 μL and finally ^3H-PGD2 was added to the membrane/SPA bead mix to 3.6 nM. 100 μL of the membrane/SPA bead/^3H-PGD2 mix was added to each well of the non-surface binding plates containing the diluted compound or controls. The plates were incubated for 2 hours at room temperature with shaking and then the plates were counted on a Microbeta scintillation counter (Perkin Elmer) for 1 min per well.
IC50 values were determined from the experimental results by nonlinear regression using Prism 4.0 software. The IC50 values were then used in conjunction with the Kd for hCRTH2 and the ^3H-PGD2 concentration used in the experiment to calculate the Ki for each compound.

**Q.** For `CCCc1nc2cc(N(Cc3ccc(F)cc3)S(=O)(=O)CC)ccc2n1CC(=O)O` [Example 29, {5-[Ethanesulfonyl-(4-fluoro-benzyl)-amino]-2-propyl-benzoimidazol-1-yl}-acetic acid], which Ki is on record?
**A.** < 1000 nM

**Q.** Which Ki does the source give for `CCCc1nc2cc(N(Cc3ccc(F)cc3)C(=O)COC)ccc2n1CC(=O)O` [Example 30, {5-[(4-Fluoro-benzyl)-(2-methoxy-acetyl)-amino]-2-propyl-benzoimidazol-1-yl}-acetic acid] here?
**A.** < 1000 nM

**Q.** For `CCCc1nc2cc(N(Cc3ccc(F)cc3)C(=O)C3CC3)ccc2n1CC(=O)O` [Example 31, {5-[Cyclopropanecarbonyl-(4-fluoro-benzyl)-amino]-2-propyl-benzoimidazol-1-yl}-acetic acid], which Ki is on record?
**A.** < 1000 nM

**Q.** With `CCCc1nc2cc(N(Cc3ccc(F)cc3)C(=O)c3ccccc3)ccc2n1CC(=O)O` [Example 32, {5-[Benzoyl-(4-fluoro-benzyl)-amino]-2-propyl-benzoimidazol-1-yl}-acetic acid] as the compound, how does the Ki read?
**A.** < 1000 nM

**Q.** For `CCCc1nc2cc(N(Cc3ccc(F)cc3)C(C)=O)ccc2n1CC(=O)O` [Example 33, {5-[Acetyl-(4-fluoro-benzyl)-amino]-2-propyl-benzoimidazol-1-yl}-acetic acid], which Ki is on record?
**A.** < 100 nM

**Q.** `CCCc1nc2c(N(Cc3ccccc3)S(=O)(=O)c3cccc(F)c3)cccc2n1CC(=O)O` [Example 34, {4-[Benzyl-(3-fluoro-benzenesulfonyl)-amino]-2-propyl-benzoimidazol-1-yl}-acetic acid] was tested. Which Ki did it give?
**A.** < 1000 nM

**Q.** Which Ki does the source give for `CCCc1nc2c(N(CCOC)S(=O)(=O)c3cccc(F)c3)cccc2n1CC(=O)O` [Example 35, {4-[(3-Fluoro-benzenesulfonyl)-(2-methoxy-ethyl)-amino]-2-propyl-benzoimidazol-1-yl}-acetic acid] here?
**A.** < 10000 nM

**Q.** How did the Ki turn out when `CCCc1nc2c(N(CCC(C)C)S(=O)(=O)c3cccc(F)c3)cccc2n1CC(=O)O` [Example 36, {4-[(3-Fluoro-benzenesulfonyl)-(3-methyl-butyl)-amino]-2-propyl-benzoimidazol-1-yl}-acetic acid] was run?
**A.** < 1000 nM

**Q.** With `CCCc1nc2c(N(Cc3ccc(F)cc3)S(=O)(=O)c3cccc(F)c3)cccc2n1CC(=O)O` [Example 37, {4-[(3 -Fluoro-benzenesulfonyl)-(4-fluoro-benzyl)-amino]-2-propyl-benzoimidazol-1-yl}-acetic acid] as the compound, how does the Ki read?
**A.** < 1000 nM

**Q.** How did the Ki turn out when `CCCc1nc2c(N(C(C)C)S(=O)(=O)c3cccc(F)c3)cccc2n1CC(=O)O` [Example 38, {4-[(3-Fluoro-benzenesulfonyl)-isopropyl-amino]-2-propyl-benzoimidazol-1-yl}-acetic acid] was run?
**A.** < 10000 nM

**Q.** With `CCCc1nc2c(N(Cc3ccccc3)S(=O)(=O)Cc3ccc(F)cc3)cccc2n1CC(=O)O` [Example 39, {4-[Benzyl-(4-fluoro-phenylmethanesulfonyl)-amino]-2-propyl-benzoimidazol-1-yl}-acetic acid] as the compound, how does the Ki read?
**A.** < 1000 nM

**Q.** Which Ki does the source give for `CCCc1nc2cccc(N(Cc3ccccc3)S(=O)(=O)c3ccc(F)cc3)c2n1CC(=O)O` [Example 40, {7-[Benzyl-(4-fluoro-benzenesulfonyl)-amino]-2-propyl-benzoimidazol-1-yl}-acetic acid] here?
**A.** > 10000 nM

**Q.** For `CCCc1nc2cc(N(Cc3ccccc3Cl)S(=O)(=O)c3ccc(F)cc3)ccc2n1CC(=O)O` [Example 41, {5-[(2-Chloro-benzyl)-(4-fluoro-benzenesulfonyl)-amino]-2-propyl-benzoimidazol-1-yl}-acetic acid], which Ki is on record?
**A.** < 100 nM

**Q.** `CCCc1nc2cc(N(Cc3cccc(Cl)c3)S(=O)(=O)c3ccc(F)cc3)ccc2n1CC(=O)O` [Example 42, {5-[(3 -Chloro-benzyl)-(4-fluoro-benzenesulfonyl)-amino]-2-propyl-benzoimidazol-1-yl}-acetic acid] was tested. Which Ki did it give?
**A.** < 100 nM

**Q.** `CCCc1nc2cc(N(Cc3cccc(Cl)c3Cl)S(=O)(=O)c3ccc(F)cc3)ccc2n1CC(=O)O` [Example 44, {5-[(2,3-Dichloro-benzyl)-(4-fluoro-benzenesulfonyl)-amino]-2-propyl-benzoimidazol-1-yl}-acetic acid] was tested. Which Ki did it give?
**A.** < 100 nM

**Q.** For `CCCc1nc2cc(N(Cc3ccccc3C(F)(F)F)S(=O)(=O)c3ccc(F)cc3)ccc2n1CC(=O)O` [Example 45, {5-[(2-Trifluoromethyl-benzyl)-(4-fluoro-benzenesulfonyl)-amino]-2-propyl-benzoimidazol-1-yl}-acetic acid], which Ki is on record?
**A.** < 1000 nM

**Q.** Which Ki does the source give for `CCCc1nc2cc(N(CCCc3ccccc3)S(=O)(=O)c3ccc(F)cc3)ccc2n1CC(=O)O` [Example 48, {5-[(4-Fluoro-benzenesulfonyl)-(3-phenyl-propyl)-amino]-2-propyl-benzoimidazol-1-yl}-acetic acid] here?
**A.** < 100 nM

**Q.** Which Ki does the source give for `CCCc1nc2cc(N(Cc3cccc(F)c3)S(=O)(=O)c3ccc(F)cc3)ccc2n1CC(=O)O` [Example 50, {5-[(4-Fluoro-benzenesulfonyl)-(3-fluoro-benzyl)-amino]-2-propyl-benzoimidazol-1-yl}-acetic acid] here?
**A.** < 1000 nM

**Q.** Which Ki does the source give for `CCCc1nc2cc(N(Cc3cccc(C(F)(F)F)c3)S(=O)(=O)c3ccc(F)cc3)ccc2n1CC(=O)O` [Example 51, {5-[(4-Fluoro-benzenesulfonyl)-(3-trifluoromethyl-benzyl)-amino]-2-propyl-benzoimidazol-1-yl}-acetic acid] here?
**A.** < 1000 nM

**Q.** `CCCc1nc2cc(N(Cc3ccc(C#N)cc3)S(=O)(=O)c3ccc(F)cc3)ccc2n1CC(=O)O` [Example 52, {5-[(4-Cyano-benzyl)-(4-fluoro-benzenesulfonyl)-amino]-2-propyl-benzoimidazol-1-yl}-acetic acid] was tested. Which Ki did it give?
**A.** < 100 nM

**Q.** For `CCCc1nc2cc(N(Cc3ccc(OC(F)(F)F)cc3)S(=O)(=O)c3ccc(F)cc3)ccc2n1CC(=O)O` [Example 53, {5-[(4-Trifluoromethoxy-benzyl)-(4-fluoro-benzenesulfonyl)-amino]-2-propyl-benzoimidazol-1-yl}-acetic acid], which Ki is on record?
**A.** < 100 nM

**Q.** With `CCCc1nc2cc(N(Cc3ccccc3C#N)S(=O)(=O)c3ccc(F)cc3)ccc2n1CC(=O)O` [Example 54, {5-[(2-Cyano-benzyl)-(4-fluoro-benzenesulfonyl)-amino]-2-propyl-benzoimidazol-1-yl}-acetic acid] as the compound, how does the Ki read?
**A.** < 1000 nM

**Q.** `CCCc1nc2cc(N(Cc3nc4ccccc4s3)S(=O)(=O)c3ccc(F)cc3)ccc2n1CC(=O)O` [Example 55, {5-[Benzothiazol-2-ylmethyl-(4-fluoro-benzenesulfonyl)-amino]-2-propyl-benzoimidazol-1-yl}-acetic acid] was tested. Which Ki did it give?
**A.** < 100 nM

**Q.** How did the Ki turn out when `C/C=C/CN(c1ccc2c(c1)nc(CCC)n2CC(=O)O)S(=O)(=O)c1ccc(F)cc1` [Example 56, {5-[But-2-enyl-(4-fluoro-benzenesulfonyl)-amino]-2-propyl-benzoimidazol-1-yl}-acetic acid] was run?
**A.** < 100 nM

**Q.** `CCCc1nc2cc(N(Cc3ccccc3)C(C)=O)ccc2n1CC(=O)O` [Example 57, [5-(Acetyl-benzyl-amino)-2-propyl-benzoimidazol-1-yl]-acetic acid] was tested. Which Ki did it give?
**A.** < 10000 nM

**Q.** With `CCCc1nc2cc(N(Cc3ccccc3)C(=O)C(C)C)ccc2n1CC(=O)O` [Example 58, [5-(Benzyl-isobutyryl-amino)-2-propyl-benzoimidazol-1-yl]-acetic acid] as the compound, how does the Ki read?
**A.** > 10000 nM

**Q.** With `CCCc1nc2cc(N(Cc3ccccc3)C(=O)CC(C)C)ccc2n1CC(=O)O` [Example 59, {5-[Benzyl-(3-methyl-butyryl)-amino]-2-propyl-benzoimidazol-1-yl}-acetic acid] as the compound, how does the Ki read?
**A.** < 10000 nM

**Q.** Which Ki does the source give for `CCCc1nc2cc(N(Cc3ccccc3)C(=O)C3CCCC3)ccc2n1CC(=O)O` [Example 60, [5-(Benzyl-cyclopentanecarbonyl-amino)-2-propyl-benzoimidazol-1-yl]-acetic acid] here?
**A.** < 10000 nM

**Q.** Which Ki does the source give for `CCCc1nc2cc(N(Cc3ccccc3)C(=O)C3CCCCC3)ccc2n1CC(=O)O` [Example 61, [5-(Benzyl-cyclohexanecarbonyl-amino)-2-propyl-benzoimidazol-1-yl]-acetic acid] here?
**A.** < 10000 nM
